Measured values as given in patent US11382907B2, “Methods and compositions for treating aging-associated impairments using CCR3-inhibitors” (Alkahest, Inc., priority 2017, dated 2022).
“Also recorded” adds a separate entry of the source.

What was measured:
[1] = target: T1, CCR3 receptor (Homo sapiens, UniProt P51677); experiment: CCR3 receptor internalization biomarker assay (FACS, whole blood); assay type: cell-based
T1 sequence (P51677 1-355): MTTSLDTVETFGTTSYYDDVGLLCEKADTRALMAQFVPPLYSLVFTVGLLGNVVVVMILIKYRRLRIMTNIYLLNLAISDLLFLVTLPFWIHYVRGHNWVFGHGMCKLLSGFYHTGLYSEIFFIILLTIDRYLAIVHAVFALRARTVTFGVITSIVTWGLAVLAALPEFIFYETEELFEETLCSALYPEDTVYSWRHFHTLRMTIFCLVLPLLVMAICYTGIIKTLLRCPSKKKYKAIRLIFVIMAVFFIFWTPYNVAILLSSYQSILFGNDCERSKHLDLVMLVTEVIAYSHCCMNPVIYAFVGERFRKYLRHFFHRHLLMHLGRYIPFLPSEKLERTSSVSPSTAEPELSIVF
Experimental: The CCR3 receptor internalization assay is FACS-based and uses human Eotaxin-1 (PreProTech, Rocky Hill, N.J.) and an anti-human CCR3 antibody labeled with APC (R&D Systems, Minneapolis, Minn.) or isotype control IgG2A antibody to monitor CCR3 receptor internalization in human eosinophils induced by human eotaxin-1 compared to naïve eosinophils. The median APC fluorescent intensity units for each sample were determined along with the mean of each set of sample triplicates.

[2] = test system: two-month-old C57Bl/6 mice treated with rmCCL11; experiment: Open Field test in young mice given recombinant mouse CCL11; assay type: in vivo; details: 2-month-old mice; rmCCL11 i.p.; Compound 1 30 mg/kg p.o. b.i.d., 2 weeks
Experimental: (§1) Open Field is used to evaluate general locomotor activity and exploratory behavior in a novel environment. Mice are brought to the experimental room for at least 30 min for acclimation to the experimental room conditions (dim lighting) prior to testing. The testing arena consists of a 50 cm×50 cm square arena. Mice are placed in the center of an arena and tracked for 15 minutes. Time spent in the peripheral and centers zones is analyzed, along with rearing behavior. 70% ethanol is used to clean all surfaces between trials.
[…] During the last week of treatment, mice were subjected to behavior testing prior to perfusion on the last day of treatment. All mice received 5 consecutive days of BrdU injection at 150 mg/kg IP immediately prior to treatment start. […]

[3] = test system: two-month-old C57Bl/6 mice treated with rmCCL11; experiment: Y-maze test in young mice given recombinant mouse CCL11; assay type: in vivo; details: 2-month-old mice; rmCCL11 i.p.; Compound 1 30 mg/kg p.o. b.i.d.
Experimental: A large Y-maze test assesses short-term memory of the familiarity of a specific context. Mice are brought to the experimental room for at least 30 min of acclimation to the experimental room conditions (dim lighting) prior to testing. For the initial training trial, the mouse is placed at the end of one arm of a large Y-maze designated “start arm” (arm length: 15 inches). The third arm of the maze is blocked off, allowing the mouse to explore two of the three arms freely (“start arm” and “familiar arm”) for 5 min. Each arm contains spatial cues. One hour later, the mouse is placed back into the maze in the “start arm” and allowed to explore all three arms with the third arm unblocked (“novel arm”). Movements in and out of each arm are tracked using automated tracking software (CleverSys). Testing is performed under dim lighting, and the apparatus is cleaned with 70% ethanol between trials.
Two-month-old C57Bl/6 mice were dosed with either vehicle control or Compound 1 by oral gavage twice daily for 18 days. During the last week of treatment, mice were subjected to behavior testing prior to perfusion on the last day of treatment. All mice received 5 consecutive days of BrdU injection at 150 mg/kg IP immediately prior to treatment start. […]

[4] = test system: blood eosinophils; experiment: Blood eosinophils in aged mice (FACS); assay type: in vivo, C57Bl/6 mice; details: 23-month-old mice, 30 mg/kg SQ BID 30 days, subset n=2, 5
Experimental: 200 uL of whole blood was collected during perfusion and shipped to Charles River Clinical Pathology Services (Shrewsbury, Mass.) for hematology analysis of eosinophil count by FACS (fluorescence activated cell sorter).
23-month-old C57Bl/6 mice were dosed with either vehicle control or Compound 1 subcutaneously twice daily for 30 days, and then sacrificed on the day of the last injection.
Treatment Groups: • Treatment Group 1a, Vehicle treatment: Aged C57Bl/6 mice (n=9), aged 23 months, received twice daily (BID) subcutaneous (SQ) treatment of vehicle solution for 30 days. • Treatment Group 3, Compound 1 treatment: Aged C57Bl/6 mice (n=18), aged 23 months, received twice daily (BID) subcutaneous (SQ) treatment of Compound 1, 30 mg/kg, for 30 days.

[5] = test system: three-month-old C57 mice treated with LPS; experiment: Open Field test (anxiety) in mice given daily LPS; assay type: in vivo; details: 3-month-old mice; daily LPS 0.5 mg/kg IP; 30 mg/kg PO BID, after 1 week
Experimental: as §1
Three-month-old C57 mice were given daily doses of lipopolysaccharide (LPS) 0.5 mg/kg IP to induce inflammation and treated with Compound 1 for up to 4 weeks.
Treatment Groups: • Treatment Group 1, Vehicle treatment: 3-month-old C57 mice (n=10) received daily IP injection of LPS for 7 weeks and twice daily (BID) oral gavage (PO) treatment of vehicle solution for up to 4 weeks. • Treatment Group 2, Vehicle treatment and Oxazolone treatment: 3-month-old C57 mice (n=10) received daily IP injection of LPS for 7 weeks and twice daily (BID) oral gavage (PO) treatment of vehicle solution for up to 4 weeks. • Treatment Group 3, Compound 1 treatment and Oxazolone treatment: 3-month-old C57 mice (n=9) received daily IP injection of LPS for 7 weeks and twice daily (BID) oral gavage (PO) treatment of Compound 1, 30 mg/kg, for up to 4 weeks.

- IC50 [1]: < 100 nM
- inhibition of CCR3 receptor internalization versus plasma Compound 1 concentration ([1]; whole blood from humans treated with Compound 1, incubated with human recombinant eotaxin-1): robust concentration-dependent effect
Compound: Cc1cc(C(=O)N(C)C)cc(NC(=O)[C@H]2CCC(=O)N2C2CCN(Cc3ccc(Cl)c(C)c3)CC2)n1 [Compound 1]
- anxiety in the Open Field [2]: improved anxiety
- memory in the Y-maze [3]: no longer significantly different from control mice
- blood eosinophils (percentage of WBC count) [4]: strong trend towards decreased blood eosinophils; also recorded: decreased an endogenous age-related increase in blood eosinophils
- anxiety in the Open Field [5]: strongly decreased the increased anxiety; also recorded: decreased the LPS-induced anxiety
